One assay concerns the target cyclo-oxygenase. Kind of assay: enzyme assay (Blackwell and Flower), inhibition of cyclo-oxygenase. In kind it is biochemical. Particulars: read-out: ED50 Cyclo-oxygenase.
The target in the next assay is lipoxygenase. Kind of assay: enzyme assay (Blackwell and Flower), inhibition of lipoxygenase. Format: biochemical. The following applies: read-out: ED50 Lipoxygenase.

pIC50: −log10 of the molar value.

This passage reports IC50 results from patent publication US4465685A, “Antiinflammatory pyrazole thioureas” (Burroughs Wellcome Co., priority 1980, dated 1984).

As to `CN=C(NC1=NN(c2ccc3ccccc3c2)CC1)SC` [Example 17, N^1,S-Dimethyl-N^2 -/1-(2-naphthyl)-2-pyrazolin-3-yl/isothiourea hydriodide], the pIC50 on cyclo-oxygenase and on lipoxygenase was 6.00 each time.

For the compound `CCCCNC(=S)NC1=NN(c2cccc(C(F)(F)F)c2)CC1` [Example 8, 3-(3-butylthioureido)-1-(3-trifluoromethylphenyl)-2-pyrazoline], the pIC50 at cyclo-oxygenase and on lipoxygenase was 5.00 throughout.

In the case of `CN=C(NC1=NN(c2ccc(Cl)cc2)CC1)SC` [Example 9, N,S-dimethyl-N^2 -/1-(4-chlorophenyl)-2-pyrazoline-3-yl/isothiourea hydriodide], the pIC50 on cyclo-oxygenase and on lipoxygenase was 5.00 each time.

Take `CNC(=O)NC1=NN(c2cccc(C(F)(F)F)c2)CC1` [Example 2, 3-(N^2-methylureido)-1-(3-trifluoromethylphenyl)-2-pyrazoline]: the pIC50 at cyclo-oxygenase and on lipoxygenase was 5.52 throughout.

Regarding `CN=C(NC1=NN(c2cccc(C(F)(F)F)c2)CC1)SC` [Example 5, 3-(N^2,S-dimethylisothioureido)-1-(3-trifluoromethylphenyl)-2-pyrazoline hydriodide monohydrate], the pIC50 at cyclo-oxygenase and on lipoxygenase was 6.00 in each case.

Turning to `CNC(=S)NC1=NN(c2cccc(C(F)(F)F)c2)CC1` [Example 3, 3-(N^2-methylthioureido)-1-(3-trifluoromethylphenyl)-2-pyrazoline], the pIC50 on cyclo-oxygenase and on lipoxygenase was 6.00 each time.

Consider `O=C(NC1=NN(c2cccc(C(F)(F)F)c2)CC1)Nc1ccccc1` [Example 1, 3-(N^2-phenylureido)-1-(3-trifluoromethylphenyl)-2-pyrazoline], for which the values for the pIC50 at cyclo-oxygenase and at lipoxygenase were 5.52 and 5.00 to 5.30, respectively.

As to `CNC(=S)NC1=NN(c2ccccc2Cl)CC1` [Example 14, 1-(2-Chlorophenyl)-3-(3-methylthioureido)-2-pyrazoline], the pIC50 on cyclo-oxygenase and on lipoxygenase was 5.00 in each case.

As to `CNC(=S)NC1=NN(c2ccc(Cl)cc2)CC1` [Example 6, 3-(3-methylthioureido)-1-(4-chlorophenyl)-2-pyrazoline], the figures for the pIC50 on cyclo-oxygenase and at lipoxygenase were 5.30 and 5.52, respectively.

As to `CNC(=S)NC1=NN(c2ccc3ccccc3c2)CC1` [Example 10, 3-(3-methylthioureido)-1-(2-naphthyl)-2-pyrazoline], the pIC50 at cyclo-oxygenase was 6.60; at lipoxygenase, 6.00.

Regarding `CNC(=S)NC1=NN(c2cnc3ccccc3c2)CC1` [Example 13, 3-(3-Methylthioureido)-1-(3-quinolyl)-2-pyrazoline], the pIC50 at cyclo-oxygenase and at lipoxygenase was 5.00 each time.
